Test results: article doi:10.1101/2024.01.31.578122v1 (biorxiv, 2024)

Experiments:
[1] = target: TRIM21 PRYSPRY (PRYSPRY domain of TRIM21) (Homo sapiens, UniProt P19474, D355A); test: isothermal titration calorimetry; type: binding
[2] = target: TRIM21 PRYSPRY (PRYSPRY domain of TRIM21) (Homo sapiens, UniProt P19474); test: microscale thermophoresis, RED-NHS labelled protein; type: binding
Sequence of TRIM21 PRYSPRY (PRYSPRY domain of TRIM21) (Homo sapiens, UniProt P19474) (P19474 287-465): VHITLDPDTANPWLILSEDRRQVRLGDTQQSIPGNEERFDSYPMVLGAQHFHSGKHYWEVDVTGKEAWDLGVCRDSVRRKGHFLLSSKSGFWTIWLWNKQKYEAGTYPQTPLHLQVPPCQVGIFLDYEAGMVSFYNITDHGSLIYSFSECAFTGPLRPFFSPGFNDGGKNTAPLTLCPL

Sequence of TRIM21 PRYSPRY (PRYSPRY domain of TRIM21) (Homo sapiens, UniProt P19474, D355A) (P19474 287-465 D355A): as the sequence (P19474 287-465) above, with D69A counted along it

Row | SMILES | Kd [1] [µM] | Kd [2] [µM]
1 | C[C@@H](O)c1ccc2c(c1)N(CCCN(C)C)c1ccccc1S2 [(R)-ACE-OH] | 9.11 | –
2 | C[C@H](O)c1ccc2c(c1)N(CCCN(C)C)c1ccccc1S2 [(S)-hydroxyl-acepromazine] | 17.9 | 237
3 | CC(=O)c1ccc2c(c1)N(CCCN(C)C)c1ccccc1S2 [acepromazine] | 5.66 | 44.6
